From patent US4791215A, “Derivatives of glutamic acid and aspartic acid” (priority 1984, dated 1988)

Columns and labels:
[1] = tested on: CCK-8 induced contraction of guinea pig gall bladder; assay: Anti-CCK activity on gall bladder strips in vitro; settings: CCK-8 10 ng/ml
Method: ANTI-CCK ACTIVITY ON GUINEA PIG GALL BALDDERS IN VITRO
A longitudinal strip of guinea pig gall bladder was placed in a bath of isolated members in the presence of Krebs at a temperature of 32° C. with continuous oxygenation with an oxygen-CO2 mixture (95-5V/V).
The isometric contractions were detected by means of a force transducer and recorded.
The gall bladder was made to contract with the use of a 10 ng/ml concentration of CCK-8; the antagonistic activity of the compounds of the invention on the contracting effect of the CCK was determined with the use of different concentrations and the ED 50 value, that is the concentration in μg/ml of a compound which could antagonise 50% of the contracting effect of the CCK, was determined.

morphine analgesia = assay: Increase in analgesia of morphine, Tail Flick Test (Experiment 1); format: in vivo, rats; settings: for percentage variation of latency of pain sensation / M (10-90) ± SE, mean percentage variation of latency: compound 10 mg/kg i.p. + morphine 2 mg/kg; for M (10-90) ± SE, mean percentage variation of latency: mean 10-90 min; for Power ratio with respect to morphine alone: rat, in vivo
Method: Experiment No: 1 Increase in analgesia of analgesic-narcotic drugs in rats by the Tail Flick Test
The method is that described by Harris et al. (J. Pharmacol. Exp. Ther. 143 (1964) 141-148).
Male rats are used having a weight of about 150-200 g which have not fasted. A point on the tail is chosen and irradiated by a heat source (75° C.) and the time (in seconds) for which the animal remains without moving its tail is measured.
A maximum period of time of 8 seconds under the heat source is chosen, after which the animal is, in any case, removed to avoid tissue damage. The measurement is effected before (controls) and after treatment with the drugs.
The percentage variation is calculated for each individual animal by the following formula: [formula] The measurements were carried out 10, 20, 30, 45, 60 and 90 minutes after treatment with the analgesics.

Compound | ED50 (concentration antagonising 50% of contracting effect of CCK-8) [1] [µg/mL] | percentage variation of latency of pain sensation (morphine analgesia; 10') [%] | percentage variation of latency of pain sensation (morphine analgesia; 20') [%] | percentage variation of latency of pain sensation (morphine analgesia; 30') [%] | percentage variation of latency of pain sensation (morphine analgesia; 45') [%] | percentage variation of latency of pain sensation (morphine analgesia; 60') [%] | percentage variation of latency of pain sensation (morphine analgesia; 90') [%] | M (10-90) ± SE, mean percentage variation of latency (morphine analgesia) [%] | Power ratio with respect to morphine alone (morphine analgesia)
CCCN(CCC)C(=O)C(CCC(=O)O)NC(=O)c1ccc(Cl)cc1 (stereo not drawn) [Compound C-3] | 34.4 | 44.4 | 83.7 ± 16.3 | 77.8 ± 17.1 | 46.4 ± 24.5 | 73.6 ± 17.7 | 45.8 ± 22.8 | 61.9 ± 18.2 | 2.10
CCCN(CCC)C(=O)C(CCC(=O)O)NC(=O)c1ccccc1Br (stereo not drawn) [Compound C-14] | 118.4 | 36.5 ± 28.4 | 76.0 ± 12.7 | 79.3 ± 10.6 | 77.0 ± 6.7 | 98.3 ± 1.3 | 71.9 ± 13.2 | 73.1 ± 20.0 | 2.45
O=C(NC(CCC(=O)N1CCCCC1)C(=O)O)c1ccc(Cl)c(Cl)c1 [Compound D-9] | > 200 | 88.5 ± 19.0 | 74.0 ± 16.0 | 70.9 ± 16.0 | 73.0 ± 15.0 | 84.5 ± 12.0 | 79.9 ± 12.0 | 75.1 ± 6.0 | 2.52
CCCCN(CCCC)C(=O)C(CCC(=O)O)NC(=O)c1cc(Cl)cc(Cl)c1 (stereo not drawn) [Compound C-9] | 7.40 | 67.6 ± 11.0 | 65.8 | 71.9 ± 17.5 | 59.1 ± 20.0 | 52.1 ± 22.0 | 40.4 ± 18.0 | 59.5 ± 11.6 | 2.00
CCCN(CCC)C(=O)C(CCC(=O)O)NC(=O)c1ccccc1I (stereo not drawn) [Compound C-17] | > 200 | 18.9 | 37.0 ± 12.0 | 45.8 ± 18.0 | 41.0 ± 17.0 | 39.3 ± 20.0 | 31.2 ± 18.0 | 35.5 ± 9.5 | 1.19
CCCCN(CCCC)C(=O)C(CCC(=O)O)NC(=O)c1cc(Cl)c(Cl)c(Cl)c1 (stereo not drawn) [Compound C-11] | 0.85 | 25.2 ± 4.0 | 37.6 ± 16.0 | 50.9 ± 11.0 | 54.4 ± 9.0 | 35.8 | 18.7 ± 10.0 | 37.1 ± 14.0 | 1.24
Cc1ccc(C(=O)NC(CCC(=O)O)C(=O)NC2CCCCC2)cc1C (stereo not drawn) [Compound C-47] | 35.1 | 24.5 | 63.5 ± 18 | 52.3 ± 17 | 80.1 ± 22 | 73.2 ± 17 | 49.3 ± 19 | 57.1 ± 20 | 1.92
CCCCNC(=O)C(CCC(=O)O)NC(=O)c1ccc(C)c(C)c1 (stereo not drawn) [Compound C-42] | 50.1 | 49.0 ± 31 | 65.9 ± 24 | 80.1 ± 9 | 59.1 ± 20 | 33.5 ± 20 | 61.4 ± 12 | 58.2 ± 16 | 1.95
Cc1ccc(C(=O)NC(CCC(=O)N(C)C)C(=O)O)cc1C [Compound D-12] | > 300 | 45.4 ± 23 | 63.9 ± 15 | 84. ± 16 | 100 ± 0 | 78.5 ± 15 | 56.1 ± 22 | 71.3 ± 20 | 2.39
CCCN(CCC)C(=O)C(CC(=O)O)NC(=O)c1ccccc1Br (stereo not drawn) [Compound C-16] | > 200 | 43.2 ± 11.0 | 88.7 ± 10.0 | 54.8 ± 5.8 | 47.3 | 26.1 ± 11.5 | 22.2 ± 16.7 | 47.0 ± 24.0 | 1.58
CCCN(CCC)C(=O)C(CCC(=O)O)NC(=O)c1ccc(F)cc1 (stereo not drawn) [Compound C-12] | 64.7 | 54.4 ± 16.7 | 76.3 | 61.6 ± 16.0 | 63.9 ± 20.0 | 65.2 ± 17.0 | 11.6 ± 14.0 | 55.5 | 1.86
CN(C)C(=O)CCC(NC(=O)c1ccc(Cl)c(Cl)c1)C(=O)O [Compound D-1] | > 200 | 75.0 ± 16.0 | 100.0 ± 0.0 | 100.0 ± 0.0 | 86.4 ± 14.0 | 100.0 ± 0.0 | 51.0 ± 21.0 | 85.4 ± 19.7 | 2.86
O=C(NC(CCC(=O)N1CCCCC1)C(=O)O)c1ccc(Br)cc1 [Compound D-7] | > 200 | 31.8 ± 19.0 | 48.0 ± 16.0 | 70.5 ± 15.0 | 73.7 ± 13.0 | 88.6 | 32.4 ± 19.0 | 57.5 ± 23.5 | 1.93
